# Literature values, collected in patent publication US20040091555A1 (priority 2003, published 2004).
# Test system: hepatocellular carcinoma
# Details: phase II clinical trials, patients with hepatocellular carcinoma
smiles,measurement,value
CC(=O)O[C@H]1C(=O)[C@@]2(C)[C@H]([C@H](OC(=O)c3ccccc3)[C@]3(O)C[C@H](OC(=O)[C@H](O)[C@@H](NC(=O)c4ccccc4)c4ccccc4)C(C)=C1C3(C)C)[C@]1(OC(C)=O)CO[C@@H]1C[C@@H]2O [paclitaxel],efficacy on hepatocellular carcinoma,no significant efficacy on hepatocellular carcinoma
